US10208089B2, “Modulation of complement activity” (priority 2014, dated 2019)
Starred links: 1 amine or outer side, 2 acyl side, 3 side chain; linkers in the order of their positions; H or OH if unused. Positions of bridges follow the written chain, without caps; N, C: chain ends. Non-standard residues stand in square brackets, D forms with d. Residues, ends and D or L forms follow the SMILES beside them. Trp(5-F) = N[C@@H](Cc1c[nH]c2ccc(F)cc12)C(=O)O; Trp(7-aza) = N[C@@H](Cc1c[nH]c2ncccc12)C(=O)O; NMePhe(4-F) = CN[C@@H](Cc1ccc(F)cc1)C(=O)O; mXylylene = c1cc(C[*:1])cc(C[*:2])c1; hPhe = N[C@@H](CCc1ccccc1)C(=O)O; Phg = N[C@H](C(=O)O)c1ccccc1; Tle = CC(C)(C)[C@H](N)C(=O)O; NMeS = CN[C@@H](CO)C(=O)O; NMeA = CN[C@@H](C)C(=O)O; Nva = CCC[C@H](N)C(=O)O; Sar = CNCC(=O)O

Target: C5 (Homo sapiens, UniProt P01031)
Assay: Human hemolysis assay (RBC lysis assay using complete human sera)
Format: cell-based
Set-up: with complete human sera (Complement Technology, Tyler Tex.) and polypeptides; tissue Complement Technology, Tyler Tex; host or cells: complete human serum
Details: 7-azatryptophan variant polypeptides of R3002; inhibition of red blood cell lysis

C5, sequence (P01031 19-1676): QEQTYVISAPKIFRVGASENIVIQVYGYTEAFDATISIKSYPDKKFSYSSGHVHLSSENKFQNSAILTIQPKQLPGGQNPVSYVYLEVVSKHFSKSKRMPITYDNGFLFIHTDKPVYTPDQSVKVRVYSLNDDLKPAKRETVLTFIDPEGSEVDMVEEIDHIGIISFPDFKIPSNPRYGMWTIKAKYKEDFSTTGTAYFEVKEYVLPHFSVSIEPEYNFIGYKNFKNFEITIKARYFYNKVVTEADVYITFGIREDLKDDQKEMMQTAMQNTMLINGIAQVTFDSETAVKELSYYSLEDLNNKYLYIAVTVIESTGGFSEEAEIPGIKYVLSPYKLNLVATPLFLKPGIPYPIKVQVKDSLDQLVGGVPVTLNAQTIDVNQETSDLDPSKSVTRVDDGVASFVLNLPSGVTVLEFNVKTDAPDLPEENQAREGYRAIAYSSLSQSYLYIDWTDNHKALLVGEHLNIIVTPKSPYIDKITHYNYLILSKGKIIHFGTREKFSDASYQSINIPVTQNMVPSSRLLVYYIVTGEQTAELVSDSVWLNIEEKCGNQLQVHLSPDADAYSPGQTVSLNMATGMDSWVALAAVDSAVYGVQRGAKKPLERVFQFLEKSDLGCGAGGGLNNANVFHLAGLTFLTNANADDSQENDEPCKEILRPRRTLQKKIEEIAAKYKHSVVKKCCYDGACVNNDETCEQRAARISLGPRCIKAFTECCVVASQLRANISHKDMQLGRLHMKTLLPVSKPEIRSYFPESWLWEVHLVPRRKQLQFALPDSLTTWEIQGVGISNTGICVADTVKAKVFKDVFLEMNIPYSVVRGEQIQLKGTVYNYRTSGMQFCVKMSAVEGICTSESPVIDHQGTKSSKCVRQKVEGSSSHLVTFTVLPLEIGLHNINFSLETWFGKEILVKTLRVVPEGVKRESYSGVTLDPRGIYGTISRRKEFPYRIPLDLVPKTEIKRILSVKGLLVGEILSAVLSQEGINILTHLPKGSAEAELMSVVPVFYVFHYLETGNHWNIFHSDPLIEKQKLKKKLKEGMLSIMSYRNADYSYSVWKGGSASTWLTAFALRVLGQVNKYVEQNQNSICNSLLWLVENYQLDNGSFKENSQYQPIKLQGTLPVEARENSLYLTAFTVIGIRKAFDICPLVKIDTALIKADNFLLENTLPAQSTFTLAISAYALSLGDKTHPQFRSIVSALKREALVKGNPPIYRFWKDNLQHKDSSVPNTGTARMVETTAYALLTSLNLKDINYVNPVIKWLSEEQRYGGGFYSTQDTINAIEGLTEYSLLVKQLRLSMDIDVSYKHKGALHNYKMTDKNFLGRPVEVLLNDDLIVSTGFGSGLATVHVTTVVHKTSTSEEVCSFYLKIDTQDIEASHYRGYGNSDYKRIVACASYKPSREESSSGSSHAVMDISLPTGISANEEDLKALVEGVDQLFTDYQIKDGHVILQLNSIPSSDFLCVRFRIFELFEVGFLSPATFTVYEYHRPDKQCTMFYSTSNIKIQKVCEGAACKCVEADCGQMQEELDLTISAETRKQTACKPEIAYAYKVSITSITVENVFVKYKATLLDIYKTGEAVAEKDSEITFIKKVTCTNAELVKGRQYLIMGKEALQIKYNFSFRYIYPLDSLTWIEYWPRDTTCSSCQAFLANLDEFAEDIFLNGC

Structure (SMILES)	IC50
CCC[C@H](NC(C)=O)C(=O)N[C@@H](CS)C(=O)N[C@@H](Cc1ccc(O)cc1)C(=O)N[C@@H](CC(N)=O)C(=O)N[C@@H](CC(N)=O)C(=O)N[C@H](C(=O)N[C@@H](CCC(=O)O)C(=O)N[C@@H](CS)C(=O)N[C@@H](CCC(=O)O)C(=O)N[C@@H](Cc1ccc(O)cc1)C(=O)N1CCC[C@H]1C(=O)N[C@H](C(=O)N[C@H](C(N)=O)C(C)(C)C)c1ccccc1)C(C)(C)C [Compound R3128, Ac-Nvl-C-Y-N-N-Tbg-E-C-E-Y-P-Phg-Tbg-NH2] (Ac-[Nva]CYNN[Tle]ECEYP[Phg][Tle]-NH2)	> 100000 nM

Same assay, conditions: 7-azatryptophan variant polypeptides of R3008; inhibition of red blood cell lysis

Structure (SMILES)	IC50
CCC[C@H](NC(=O)[C@@H]1CSCc2cccc(c2)CSC[C@H](NC(=O)[C@H](CCC)NC(C)=O)C(=O)N[C@@H](c2ccccc2)C(=O)N[C@@H]([C@@H](C)O)C(=O)N[C@@H](Cc2c[nH]c3ccc(F)cc23)C(=O)N[C@@H](CCC(=O)O)C(=O)N[C@@H](Cc2ccc(O)cc2)C(=O)N(C)[C@@H](CO)C(=O)N[C@@H](C)C(=O)N1)C(N)=O [Compound R3088, [mXyly1(2,10)]Ac-Nvl-C-Phg-T-(5-F)W-E-Y-(N-Me)S-A-C-Nvl-NH2] (Ac-[Nva]C[Phg]T[Trp(5-F)]EY[NMeS]AC[Nva]-NH2; linker 2-10 via mXylylene)	> 100000 nM

Same assay, conditions: inhibition of lysis of antibody-sensitized sheep erythrocytes, complete human sera

Structure (SMILES)	IC50
CC(=O)N[C@H]1CSCc2cccc(c2)CSC[C@@H](C(=O)N[C@@H](CC(=O)O)C(=O)N[C@H](C(=O)N[C@@H](Cc2ccc(O)cc2)C(=O)N[C@@H](Cc2c[nH]c3ncccc23)C(=O)N[C@@H](CCC(=O)O)C(=O)N[C@@H](Cc2ccc(O)cc2)C(=O)N2CCC[C@H]2C(=O)N[C@@H](C(=O)N[C@@H](CCCCN)C(N)=O)c2ccccc2)C(C)(C)C)NC(=O)[C@H](Cc2ccccc2)NC(=O)[C@H](CCCNC(=N)N)NC(=O)[C@H](CCC(=O)O)NC(=O)[C@H](C)NC1=O [Compound R3162, [mXylyl(1,6)]Ac-C-A-E-R-F-C-D-Tbg-Y-azaTrp-E-Y-P-(D-Phg)-K-NH2]	16.5 nM
CCC[C@H](NC(=O)[C@@H]1CSCc2cccc(c2)CSC[C@H](NC(=O)[C@H](CCC)NC(C)=O)C(=O)N[C@@H](c2ccccc2)C(=O)N[C@@H]([C@@H](C)O)C(=O)N[C@@H](Cc2c[nH]c3ncccc23)C(=O)N[C@@H](CCC(=O)O)C(=O)N[C@@H](Cc2ccc(O)cc2)C(=O)N(C)[C@@H](C)C(=O)N[C@@H](Cc2c[nH]cn2)C(=O)N1)C(N)=O [Compound R3037, [mXylyl(2,10)]Ac-Nvl-C-Phg-T-azaTrp-E-Y-(N-Me)A-H-C-Nvl-NH2] (Ac-[Nva]C[Phg]T[Trp(7-aza)]EY[NMeA]HC[Nva]-NH2; linker 2-10 via mXylylene)	276 nM
CCC[C@H](NC(=O)[C@@H]1CSCc2cccc(c2)CSC[C@H](NC(=O)[C@H](CCC)NC(C)=O)C(=O)N[C@@H](c2ccccc2)C(=O)N[C@@H]([C@@H](C)O)C(=O)N[C@@H](Cc2c[nH]c3ccc(F)cc23)C(=O)N[C@@H](CCC(=O)O)C(=O)N[C@@H](Cc2ccc(O)cc2)C(=O)N(C)[C@@H](CO)C(=O)N[C@@H](C)C(=O)N1)C(N)=O [Compound R3088, [mXyly1(2,10)]Ac-Nvl-C-Phg-T-(5-F)W-E-Y-(N-Me)S-A-C-Nvl-NH2] (Ac-[Nva]C[Phg]T[Trp(5-F)]EY[NMeS]AC[Nva]-NH2; linker 2-10 via mXylylene)	> 100000 nM
CCC[C@H](NC(=O)[C@@H]1CSCc2cccc(c2)CSC[C@H](NC(=O)[C@H](CCC)NC(C)=O)C(=O)N[C@@H](c2ccccc2)C(=O)N[C@@H]([C@@H](C)O)C(=O)N[C@@H](Cc2c[nH]c3ncccc23)C(=O)N[C@@H](CC(=O)O)C(=O)N[C@@H](Cc2ccc(O)cc2)C(=O)N(C)[C@@H](CO)C(=O)N[C@@H](C)C(=O)N1)C(N)=O [Compound R3097, [mXylyl(2,10)]Ac-Nvl-C-Phg-T-azaTrp-D-Y-(N-Me)S-A-C-Nvl-NH2] (Ac-[Nva]C[Phg]T[Trp(7-aza)]DY[NMeS]AC[Nva]-NH2; linker 2-10 via mXylylene)	> 100000 nM
CCC[C@H](NC(C)=O)C(=O)N[C@@H](CS)C(=O)N[C@@H](Cc1ccc(O)cc1)C(=O)N[C@@H](CC(N)=O)C(=O)N[C@@H](CC(N)=O)C(=O)N[C@H](C(=O)N[C@@H](CCC(=O)O)C(=O)N[C@@H](CS)C(=O)N[C@@H](CCC(=O)O)C(=O)N[C@@H](Cc1ccc(O)cc1)C(=O)N1CCC[C@H]1C(=O)N[C@H](C(=O)N[C@H](C(N)=O)C(C)(C)C)c1ccccc1)C(C)(C)C [Compound R3128, Ac-Nvl-C-Y-N-N-Tbg-E-C-E-Y-P-Phg-Tbg-NH2] (Ac-[Nva]CYNN[Tle]ECEYP[Phg][Tle]-NH2)	> 100000 nM
CCC[C@H](NC(=O)[C@@H]1CSCc2cccc(c2)CSC[C@H](NC(=O)[C@H](CCC)NC(C)=O)C(=O)N[C@@H](c2ccccc2)C(=O)N[C@@H]([C@@H](C)O)C(=O)N[C@@H](Cc2c[nH]c3ncccc23)C(=O)N[C@@H](CCC(=O)O)C(=O)N[C@@H](CCc2ccccc2)C(=O)N(C)[C@@H](CO)C(=O)N[C@@H](C)C(=O)N1)C(N)=O [Compound R3095, [mXyly1(2,10)]Ac-Nvl-C-Phg-T-azaTrp-E-(homo)F-(N-Me)S-A-C-Nvl-NH2] (Ac-[Nva]C[Phg]T[Trp(7-aza)]E[hPhe][NMeS]AC[Nva]-NH2; linker 2-10 via mXylylene)	> 50000 nM
CCC[C@H](N)C(=O)N[C@H]1CSCc2cccc(c2)CSC[C@@H](C(N)=O)NC(=O)CN(C)C(=O)[C@H](Cc2ccc(F)cc2)N(C)C(=O)[C@H](Cc2c[nH]cn2)NC(=O)[C@H](CO)N(C)C(=O)[C@H](Cc2ccc(F)cc2)N(C)C(=O)[C@H](c2ccccc2)NC(=O)[C@H](CO)N(C)C(=O)[C@H](Cc2ccc(O)cc2)NC1=O [Compound R3051, [mXylyl(2,11)]Nvl-C-Y-(N-Me)S-Phg-(N-Me-4-F)Phe-(N-Me)S-H-(N-Me-4-F)-Phe-(N-Me)G-C-NH2] (H-[Nva]CY[NMeS][Phg][NMePhe(4-F)][NMeS]H[NMePhe(4-F)][Sar]C-NH2; linker 2-11 via mXylylene)	> 100000 nM
CCC[C@H](NC(=O)[C@@H](NC(=O)[C@@H]1CCCN1C(=O)[C@H](Cc1ccc(O)cc1)NC(=O)[C@H](CCC(=O)O)NC(=O)[C@H](Cc1c[nH]c2ccccc12)NC(=O)[C@H](Cc1ccc(O)cc1)NC(=O)[C@@H](NC(=O)[C@H](CC(=O)O)NC(=O)[C@@H]1CSCc2cccc(c2)CSC[C@H](NC(C)=O)C(=O)N[C@@H](C)C(=O)N[C@@H](CCC(=O)O)C(=O)N[C@@H](CCCNC(=N)N)C(=O)N[C@@H](Cc2ccccc2)C(=O)N1)C(C)(C)C)c1ccccc1)C(N)=O [Compound R3148, [mXylyl(1,6)]Ac-C-A-E-R-F-C-D-Tbg-Y-W-E-Y-P-Phg-Nvl-NH2] (Ac-CAERFCD[Tle]YWEYP[Phg][Nva]-NH2; linker 1-6 via mXylylene)	8.5 nM
CCC[C@H](NC(C)=O)C(=O)N[C@H]1CSCc2cccc(c2)CSC[C@@H](C(N)=O)NC(=O)[C@H](CCC)NC(=O)[C@H](c2ccccc2)NC(=O)[C@@H]2CCCN2C(=O)[C@H](Cc2ccc(O)cc2)NC(=O)[C@H](CCC(=O)O)NC(=O)[C@H](Cc2c[nH]c3ncccc23)NC(=O)[C@H](Cc2ccc(O)cc2)NC(=O)[C@H](C(C)(C)C)NC(=O)[C@H](CC(N)=O)NC(=O)[C@H](CCC(=O)O)NC(=O)[C@H](Cc2ccc(O)cc2)NC1=O [Compound R3019, [mXylyl(2,14)]Ac-Nvl-C-Y-E-N-Tbg-Y-azaTrp-E-Y-P-Phg-Nvl-C-NH2] (Ac-[Nva]CYEN[Tle]Y[Trp(7-aza)]EYP[Phg][Nva]C-NH2; linker 2-14 via mXylylene)	1320 nM
CCC[C@H](NC(=O)[C@@H](NC(=O)[C@@H]1CCCN1C(=O)[C@H](Cc1ccc(O)cc1)NC(=O)[C@H](CCC(=O)O)NC(=O)[C@H](Cc1c[nH]c2ncccc12)NC(=O)[C@H](Cc1ccc(O)cc1)NC(=O)[C@@H](NC(=O)[C@H](CC(=O)O)N(C)C(=O)[C@@H]1CSCc2cccc(c2)CSC[C@H](NC(C)=O)C(=O)N[C@@H](C(C)C)C(=O)N[C@@H](CCC(=O)O)C(=O)N[C@@H](CCCNC(=N)N)C(=O)N[C@@H](Cc2ccccc2)C(=O)N1)C(C)(C)C)C1CCCCC1)C(N)=O [Compound R3172, [mXylyl(1,6)]Ac-C-V-E-R-F-C-(N-Me)D-Tbg-Y-azaTrp-E-Y-P-Chg-Nvl-NH2]	12 nM
CC(=O)N[C@H]1CSCc2cccc(c2)CSC[C@@H](C(=O)N[C@@H](CC(=O)O)C(=O)N[C@H](C(=O)N[C@@H](Cc2ccc(O)cc2)C(=O)N[C@@H](Cc2c[nH]c3ccccc23)C(=O)N[C@@H](CCC(=O)O)C(=O)N[C@@H](Cc2ccccc2)C(N)=O)C(C)(C)C)NC(=O)[C@H](Cc2ccccc2)NC(=O)[C@H](CCCNC(=N)N)NC(=O)[C@H](CCC(=O)O)NC(=O)[C@H](C(C)C)NC1=O [Compound R3138, [mXylyl(1,6)]Ac-C-V-E-R-F-C-D-Tbg-Y-W-E-F-NH2] (Ac-CVERFCD[Tle]YWEF-NH2; linker 1-6 via mXylylene)	87.2 nM
